# Reference: a melting point compilation (Tetko et al.; mined from patent text by program, amines drawn as free bases though some values may be those of a salt)
row,SMILES,melting point
1,CCCCCCCCCCCC(=O)NCCNCCNCCNC(=O)CCCCCCCCCCC,110 to 112 °C
2,COc1ccc(CC(C)N)cc1S(N)(=O)=O (stereo unspecified),180 °C
3,CC(=CCP(=O)(O)O)C(N)C(=O)O (stereo unspecified),168 °C
4,O=C1CCCCC1c1cccnc1 (stereo unspecified),78 to 80 °C
5,C(=C\c1cc(/C=C/c2ccccc2OCc2ccccn2)[nH]n1)/c1ccc2[nH]ccc2c1,220 to 223 °C
6,CC1(C)CC(=O)c2c(S(C)(=O)=O)sc(C(=O)N3CCCC3)c2C1,161 °C
7,CCOc1nc(Nc2ccc(F)c(Cl)c2)nc(NC2CCN(S(C)(=O)=O)CC2)n1,197 to 199 °C
8,NS(=O)(=O)c1c(Cl)sc(Cl)c1Br,113 to 117 °C
9,CCOC(=O)/C=C(C)/C=C/C=C(C)/C=C/c1c(Cl)cc(OC(F)(F)F)c(C)c1Cl,93 to 94 °C
10,CC(C)C(NC(=O)N(C)Cc1ccccn1)C(=O)NC(Cc1ccccc1)C(O)C(O)C(Cc1ccccc1)NC(=O)C(NC(=O)N(C)Cc1ccccn1)C(C)C (stereo unspecified),159 to 162 °C
11,"O=C(OCC1CCCN1)N1CCN(c2cc(N3CCCC3)nc(N3CCCC3)n2)CC1 (single isomer, unassigned; (+))",137 to 138 °C
12,CNC(=S)NCCCSCc1c[nH]cn1,118 to 120 °C
13,CC(C)(C)OC(=O)N1CCC(C(=O)N2CCN(c3ccncn3)CC2)CC1,159 to 163 °C
14,CCOC(=O)c1cc2c(C(F)(F)F)cc(CP(=O)(OCC)OCC)cc2n1C,95 to 96.5 °C
15,CC1(C)CCC(C)(C)c2c(OS(=O)(=O)C(F)(F)F)cc(-c3ccccc3)cc21,110 °C
16,CCC12CCC3C4CCC(=O)C=C4CCC3C1C=CC2=O (stereo unspecified),157 °C
17,CC(Cn1cnnn1)n1nnc2cc3c(=O)n(C)nnc3cc2c1=O (stereo unspecified),228 to 230 °C
18,O=C1C=C(O[C@@H]2c3cc(C(F)(F)C(F)(F)F)ccc3OC(CF)(CF)[C@H]2O)CC1 (relative stereo),165 to 167 °C
19,OC(CNCCCn1cnc2ccccc21)c1ccc(OCc2ccccc2)cc1 (stereo unspecified),83 to 85 °C
20,Nc1c(OCCCl)cccc1[N+](=O)[O-],71 to 73 °C
21,CN(c1cccc2cc(C3=NCC4(CCN(Cc5nccn5C)CC4)S3)[nH]c12)S(=O)(=O)c1cccs1,103 °C
22,CC(C)(C)OC(=O)N1CCN(C(=O)N2CC(=O)Nc3ccccc32)CC1,166 to 167 °C
23,N#Cc1cn(Cc2c(F)cccc2F)nn1,116 °C
24,O=C(O)C[C@]1(O)C[C@H](CCCCCCc2ccc(C(F)(F)F)cc2C(F)(F)F)OC1=O (relative stereo),70 to 73 °C
25,CC(=O)OCc1c(-c2cc(Nc3cc(CN4CCC4)n(C)n3)c(=O)n(C)n2)cccc1-n1ncc2cc(C(C)(C)C)cc(F)c2c1=O,214 to 217 °C
26,CC(C)(C)CC(C)(C)c1cc(-n2nc3ccc(C(F)(F)F)cc3n2)c(O)c(C(C)(C)c2ccccc2)c1,119 to 121 °C
27,CCS(=O)(=O)NCc1ccc2[nH]cc(CCCN3CCN(c4ncncc4OC)C(C)C3)c2c1 (stereo unspecified),202 to 210 °C
28,COC(=O)NCOC(=O)N=CNc1c(Cc2cccnc2)c[nH]c1C(=O)OC,160 to 162 °C
29,CC1(C)CC(C)(C)CC(C)(NC=O)C1,104 to 106 °C

# Other lines, results leading:
row,melting point,SMILES
1,218 °C,COc1cc2c(O)c3c4c(ccnc4c2cc1OC)CCC3
2,122 to 123 °C,CC(C)c1sc(C(O)(C(F)(F)F)C(F)(F)F)nc1-c1ccc(S(C)(=O)=O)cc1
3,65 to 67 °C,O=S(=O)(Nc1cccc(CCOCc2ccc(-c3ccc(F)cc3)cc2F)c1)C(F)(F)F
4,200 to 201 °C,CCCCc1nc2c(N)nc3ccccc3c2n1CCCNC(=O)NC1CCCCC1
5,240 to 244 °C,O=C(O)c1ccc2c(c1)Cc1ccccc1CO2
6,174 to 175 °C,COc1ccc(NC(=O)NC2CCN(Cc3ccccc3)CC2)c(CCc2cc(C(C)(C)C)c(O)c(C(C)(C)C)c2)c1
7,210 to 212 °C,Cc1ccc2ccc(C(N)=O)cc2c1
8,39 to 40 °C,O=C(CCCCCCSc1ccccc1)c1ncco1
9,114 to 117 °C,Cc1nccc(N2CCC(O)(C(=O)N3CCN(C(=O)c4ccc(Br)cc4)CC3)CC2)n1
10,77 to 78 °C,CCC(C)n1nnc2c(N=C=S)cccc21 (stereo unspecified)
11,95 to 97 °C,Cc1ccc(Oc2ccc([N+](=O)[O-])cc2)c(O)c1
12,182 to 183 °C,COc1ccc(-c2cc(=O)n(Cc3ccncc3)nc2-c2ccc(OC)cc2)cc1
13,75 to 77 °C,COc1cccc2c3c(c(=O)[nH]c12)CCN3c1ccccc1
14,120 °C,Clc1ccc(-n2nc3cc(Cl)ccc3c2Cl)c(Cl)c1
15,210 to 213 °C,O=C(O)CCN1CCN(c2ccccc2Cl)CC1
16,133 to 135 °C,CCOC(=O)C(=CNc1ncnc2ccc(NC(=O)CC(C)(C)C)cc12)C(=O)OCC
17,162 to 163 °C,Cc1ccc(CN2CCN(CCCOc3ccc4[nH]c(=O)cc(C)c4c3)CC2)cc1
18,267 °C,NS(=O)(=O)c1cccc(-c2noc(-c3cnn4c(C(F)F)cc(-c5ccc(C(F)(F)F)cc5)nc34)n2)c1
19,84 °C,OC1CCc2cc(Cl)c(Cl)cc21 (stereo unspecified)
20,120 °C,COc1ccc2c(N)cccc2c1C(F)(F)F
21,69 to 70 °C,NNc1cccc(-c2ccccn2)n1

row,melting point,SMILES
1,170 to 171 °C,CCCCCCc1nc2c(N)nc3ccccc3c2n1CCCCNS(C)(=O)=O
2,> 250 °C,CC(C)(C)OC(=O)NC1Cc2cccc(c2)CC(C(=O)O)NC(=O)CNC1=O (stereo unspecified)
3,> 200 °C,Cc1cc(=O)[nH]n(Cc2ccccc2)c1=O
4,77 to 79 °C,Nc1ccnn1-c1cccc(C(F)(F)F)c1
5,183 to 185 °C,CN1C(=O)CC[C@]2(C)c3ccc(C=Cc4cncc5ccccc45)cc3CC[C@@H]12
6,105 to 106 °C,CCOC(=O)NN1CCN(CCCCC(=O)c2ccccc2)CC1
7,143 to 144 °C,O=[N+]([O-])c1ccc(Br)cc1CS(=O)(=O)c1ccccc1
8,55 to 56 °C,COc1cc2c(cc1OC)-c1cc3ccccc3nc1CC2
9,96 to 99 °C,CC(=O)OCCN1CCN(CC#CC2=Cc3ccccc3Sc3ccc(Cl)cc32)CC1
10,59 to 65 °C,COC(=O)c1ccc2c(c1)CN(C(=O)OCc1ccccc1)C2
11,137 to 140 °C,COc1nc(OC)nc(-n2c(C(F)(F)F)nc3cc(C)ccc32)n1
12,130 to 132 °C,CCC(OC(=O)C1CC1)c1ccc(Cl)c2nc3n(c12)CCCN3c1ccc(OC)cc1Cl (stereo unspecified)
13,160 to 161 °C,CC(=O)Nc1ccc(S(=O)(=O)NCc2noc(-c3c4ccccc4nn3CCn3ccnc3)n2)cc1
14,113 to 115 °C,COc1c2c(cc3c(C)cc(=O)oc13)CC(C)O2 (stereo unspecified)
15,139 to 142 °C,COC(=C(OC)c1ccccc1OC)c1ccc(N)nn1
16,99 to 101 °C,CCOC(=O)c1cc(C=Cc2ccc(O)c(OC)c2)n[nH]1
17,107 to 108 °C,Cc1oc(-c2ccccc2)nc1CCOc1ccc(N)cn1
18,121 to 123 °C,Cc1cc2c(c(C)c1NC(=O)OC(C)(C)C)CC(C)(C)O2
19,208 to 210 °C,Cc1ccc(C)c(-c2sc(NC(=O)[C@@H]3CC4CCC3CC4)c(C#N)c2Cl)c1
20,158 to 160 °C,O=C(O)c1ccccc1OC(F)(F)C(F)F
21,48 to 49 °C,CCOc1cc(C(=O)CCCC2CCCCC2)c(O)cc1C
